According to publication PMC7023430, “4-Aminobenzoic Acid Derivatives: Converting Folate Precursor to Antimicrobial and Cytotoxic Agents” (Biomolecules, 2019):
Values after ≈ are worked out from the molar mass of the structure shown. Where two headings read alike, the source gives them in different places.

Experiments:
[1] = tested on: methicillin-resistant Staphylococcus aureus ATCC 43300, CCM 4750 (MRSA); assay: Antibacterial microdilution broth method, MRSA; type: cell-based; settings: Staphylococcus aureus
[2] = tested on: Staphylococcus epidermidis H 6966/08; assay: Antibacterial microdilution broth method, S. epidermidis; type: cell-based; settings: Staphylococcus epidermidis, H6966/08, S. epidermidis
[3] = tested on: Enterococcus faecalis ATCC 29212, CCM 4224; assay: Antibacterial microdilution broth method, E. faecalis; type: cell-based; settings: Enterococcus faecalis
[4] = tested on: Escherichia coli ATCC 25922, CCM 3954; assay: Antibacterial microdilution broth method, E. coli; type: cell-based; settings: Escherichia coli
[5] = tested on: Mycobacterium avium 330/88; assay: Antimycobacterial micromethod in Šula's medium, M. avium; type: cell-based
[6] = tested on: Mycobacterium kansasii 235/80; assay: Antimycobacterial micromethod in Šula's medium, M. kansasii 235/80; type: cell-based
[7] = tested on: M. kansasii 6509/96 (clinical isolate); assay: Antimycobacterial micromethod in Šula's medium, M. kansasii 6509/96; type: cell-based; settings: Mycobacterium kansasii
[8] = tested on: Candida albicans ATCC 44859; assay: Antifungal microdilution broth method, C. albicans; type: cell-based
Summary of the method: (§1)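 Broth microdilution, EUCAST, modified. Medium: RPMI-1640 + L-glutamine + 2% glucose, MOPS pH 7.0; compounds from DMSO, twofold series. Visual MIC, duplicates, ≤1-step discrepancy accepted.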

Candida krusei E28 = assay: Antifungal microdilution broth method, C. krusei; type: cell-based; settings: Pichia kudriavzevii
Summary of the method: as §1

Candida glabrata 20/I = assay: Antifungal microdilution broth method, C. glabrata; type: cell-based; settings: Nakaseomyces glabratus
Summary of the method: as §1

Trichosporon asahii 1188 = assay: Antifungal microdilution broth method, T. asahii; type: cell-based
Summary of the method: as §1

[9] = tested on: Aspergillus fumigatus 231; assay: Antifungal microdilution broth method, A. fumigatus; type: cell-based
Summary of the method: as §1

[10] = tested on: Lichtheimia corymbifera 272; assay: Antifungal microdilution broth method, L. corymbifera; type: cell-based
Summary of the method: as §1

[11] = tested on: Trichophyton interdigitale 445; assay: Antifungal microdilution broth method, T. interdigitale; type: cell-based
Summary of the method: as §1

HepG2 cells = assay: Cytotoxicity, CellTiter 96 assay; type: cell-based, human; settings: Homo sapiens, HepG2, 24 h, 24 h incubation
Summary of the method: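 HepG2 cells (10,000/well) exposed 24 h at 37 °C, 5% CO2 to compounds in DMSO (≤1% v/v final), triplicates. Viability by tetrazolium-to-formazan reduction (CellTiter 96 AQueous One), absorbance 490 nm after 2 h. IC50 from nonlinear regression versus untreated controls; 10% DMSO defined 0% viability.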

[12] = tested on: ESBL-positive Klebsiella pneumoniae J 14368/08
[13] = 24 h incubation, read-out: MIC MRSA 24 h
[14] = 48 h incubation, read-out: MIC MRSA 48 h
[15] = 24 h incubation, read-out: MIC SE 24 h
[16] = 48 h incubation, read-out: MIC SE 48 h
[17] = 24 h incubation, read-out: MIC EF 24 h
[18] = 48 h incubation, read-out: MIC EF 48 h
[19] = 24 h incubation, read-out: MIC EC 24 h
[20] = 48 h incubation, read-out: MIC EC 48 h
[21] = 330/88, 336 h, 14 days incubation at 37 °C, read-out: MIC M. avium 330/88 14 d
[22] = 330/88, 504 h, 21 days incubation at 37 °C, read-out: MIC M. avium 330/88 21 d
[23] = 235/80, 168 h, 7 days incubation at 37 °C, read-out: MIC M. kansasii 235/80 7 d
[24] = 235/80, 336 h, 14 days incubation at 37 °C, read-out: MIC M. kansasii 235/80 14 d
[25] = 235/80, 504 h, 21 days incubation at 37 °C, read-out: MIC M. kansasii 235/80 21 d
[26] = 168 h, 7 days incubation at 37 °C, read-out: MIC M. kansasii 6509/96 7 d
[27] = 336 h, 14 days incubation at 37 °C, read-out: MIC M. kansasii 6509/96 14 d
[28] = 504 h, 21 days incubation at 37 °C, read-out: MIC M. kansasii 6509/96 21 d
[29] = ATCC44859, 24 h, read-out: MIC CA 24 h
[30] = ATCC44859, 48 h, read-out: MIC CA 48 h

O=C(O)c1ccc(N=Cc2cc(Cl)cc(Cl)c2O)cc1 [1n, 4-[(3,5-Dichloro-2-hydroxybenzylidene)amino]benzoic acid]
MIC [1, 13]: 250 µM (≈ 77.5 µg/mL) | MIC [1, 14]: 250 µM (≈ 77.5 µg/mL) | MIC [2, 15]: 250 µM (≈ 77.5 µg/mL) | MIC [2, 16]: 250 µM (≈ 77.5 µg/mL) | MIC [3, 17]: > 500 µM | MIC [3, 18]: > 500 µM | MIC [4, 19]: > 500 µM | MIC [4, 20]: > 500 µM | MIC [5, 21]: 1000 µM (≈ 310 µg/mL) | MIC [5, 22]: 1000 µM (≈ 310 µg/mL) | MIC [6, 23]: 500 µM (≈ 155 µg/mL) | MIC [6, 24]: 500 µM (≈ 155 µg/mL) | MIC [6, 25]: 500 µM (≈ 155 µg/mL) | MIC [7, 26]: 250 µM (≈ 77.5 µg/mL) | MIC [7, 27]: 500 µM (≈ 155 µg/mL) | MIC [7, 28]: 500 µM (≈ 155 µg/mL) | MIC [8, 29]: 125 µM (≈ 38.8 µg/mL) | MIC [8, 30]: 125 µM (≈ 38.8 µg/mL) | MIC (Candida krusei E28; 24 h, read-out: MIC CK 24 h): 125 µM (≈ 38.8 µg/mL) | MIC (Candida krusei E28; 48 h, read-out: MIC CK 48 h): 125 µM (≈ 38.8 µg/mL) | MIC (Candida glabrata 20/I; 24 h, read-out: MIC CG 24 h): 125 µM (≈ 38.8 µg/mL) | MIC (Candida glabrata 20/I; 48 h, read-out: MIC CG 48 h): 125 µM (≈ 38.8 µg/mL) | MIC (Trichosporon asahii 1188; 24 h, read-out: MIC TA 24 h): 125 µM (≈ 38.8 µg/mL) | MIC (Trichosporon asahii 1188; 48 h, read-out: MIC TA 48 h): 125 µM (≈ 38.8 µg/mL) | MIC ([9]; 24 h, read-out: MIC AF 24 h): 500 µM (≈ 155 µg/mL) | MIC ([9]; 48 h, read-out: MIC AF 48 h): 500 µM (≈ 155 µg/mL) | MIC ([10]; 24 h, read-out: MIC LC 24 h): 500 µM (≈ 155 µg/mL) | MIC ([10]; 48 h, read-out: MIC LC 48 h): 500 µM (≈ 155 µg/mL) | MIC ([11]; 72 h, read-out: MIC TI 72 h): 250 µM (≈ 77.5 µg/mL) | MIC ([11]; 120 h, read-out: MIC TI 120 h): 250 µM (≈ 77.5 µg/mL) | IC50 (HepG2 cells): 98.7 µM | MIC KP-E 24 h [12]: >500 µM | MIC KP-E 48 h [12]: >500 µM

O=C(O)c1ccc(N=Cc2cc(Cl)cc(Br)c2O)cc1 [1o, 4-[(3-Bromo-5-chloro-2-hydroxybenzylidene)amino]benzoic acid]
MIC [1, 13]: 31.2 µM (≈ 11.1 µg/mL) | MIC [1, 14]: 31.2 µM (≈ 11.1 µg/mL) | MIC [2, 15]: 15.6 µM (≈ 5.54 µg/mL) | MIC [2, 16]: 31.2 µM (≈ 11.1 µg/mL) | MIC [3, 17]: 62.5 µM (≈ 22.2 µg/mL) | MIC [3, 18]: 62.5 µM (≈ 22.2 µg/mL) | MIC [4, 19]: 500 µM (≈ 177 µg/mL) | MIC [4, 20]: 500 µM (≈ 177 µg/mL) | MIC [5, 21]: 500 µM (≈ 177 µg/mL) | MIC [5, 22]: 500 µM (≈ 177 µg/mL) | MIC [6, 23]: 250 µM (≈ 88.6 µg/mL) | MIC [6, 24]: 500 µM (≈ 177 µg/mL) | MIC [6, 25]: 500 µM (≈ 177 µg/mL) | MIC [7, 26]: 500 µM (≈ 177 µg/mL) | MIC [7, 27]: 500 µM (≈ 177 µg/mL) | MIC [7, 28]: 500 µM (≈ 177 µg/mL) | MIC [8, 29]: 31.2 µM (≈ 11.1 µg/mL) | MIC [8, 30]: 31.2 µM (≈ 11.1 µg/mL) | MIC (Candida krusei E28; 24 h, read-out: MIC CK 24 h): 62.5 µM (≈ 22.2 µg/mL) | MIC (Candida krusei E28; 48 h, read-out: MIC CK 48 h): 62.5 µM (≈ 22.2 µg/mL) | MIC (Candida glabrata 20/I; 24 h, read-out: MIC CG 24 h): 15.6 µM (≈ 5.54 µg/mL) | MIC (Candida glabrata 20/I; 48 h, read-out: MIC CG 48 h): 15.6 µM (≈ 5.54 µg/mL) | MIC (Trichosporon asahii 1188; 24 h, read-out: MIC TA 24 h): 31.2 µM (≈ 11.1 µg/mL) | MIC (Trichosporon asahii 1188; 48 h, read-out: MIC TA 48 h): 31.2 µM (≈ 11.1 µg/mL) | MIC ([9]; 24 h, read-out: MIC AF 24 h): 250 µM (≈ 88.6 µg/mL) | MIC ([9]; 48 h, read-out: MIC AF 48 h): 250 µM (≈ 88.6 µg/mL) | MIC ([10]; 24 h, read-out: MIC LC 24 h): 500 µM (≈ 177 µg/mL) | MIC ([10]; 48 h, read-out: MIC LC 48 h): 500 µM (≈ 177 µg/mL) | MIC ([11]; 72 h, read-out: MIC TI 72 h): 62.5 µM (≈ 22.2 µg/mL) | MIC ([11]; 120 h, read-out: MIC TI 120 h): 62.5 µM (≈ 22.2 µg/mL) | IC50 (HepG2 cells): 85.7 µM | MIC KP-E 24 h [12]: 500 µM (≈ 177 µg/mL) | MIC KP-E 48 h [12]: 500 µM (≈ 177 µg/mL)

O=C(O)c1ccc(N=Cc2cc(Cl)cc(I)c2O)cc1 [1p, 4-[(5-Chloro-2-hydroxy-3-iodobenzylidene)amino]benzoic acid]
MIC [1, 13]: 15.6 µM (≈ 6.27 µg/mL) | MIC [1, 14]: 15.6 µM (≈ 6.27 µg/mL) | MIC [2, 15]: 31.2 µM (≈ 12.5 µg/mL) | MIC [2, 16]: 31.2 µM (≈ 12.5 µg/mL) | MIC [3, 17]: 62.5 µM (≈ 25.1 µg/mL) | MIC [3, 18]: 62.5 µM (≈ 25.1 µg/mL) | MIC [4, 19]: 62.5 µM (≈ 25.1 µg/mL) | MIC [4, 20]: 62.5 µM (≈ 25.1 µg/mL) | MIC [5, 21]: 500 µM (≈ 201 µg/mL) | MIC [5, 22]: 1000 µM (≈ 402 µg/mL) | MIC [6, 23]: 250 µM (≈ 100 µg/mL) | MIC [6, 24]: 500 µM (≈ 201 µg/mL) | MIC [6, 25]: 500 µM (≈ 201 µg/mL) | MIC [7, 26]: 250 µM (≈ 100 µg/mL) | MIC [7, 27]: 250 µM (≈ 100 µg/mL) | MIC [7, 28]: 500 µM (≈ 201 µg/mL) | MIC [8, 29]: 7.81 µM (≈ 3.14 µg/mL) | MIC [8, 30]: 7.81 µM (≈ 3.14 µg/mL) | MIC (Candida krusei E28; 24 h, read-out: MIC CK 24 h): 15.6 µM (≈ 6.27 µg/mL) | MIC (Candida krusei E28; 48 h, read-out: MIC CK 48 h): 15.6 µM (≈ 6.27 µg/mL) | MIC (Candida glabrata 20/I; 24 h, read-out: MIC CG 24 h): 7.81 µM (≈ 3.14 µg/mL) | MIC (Candida glabrata 20/I; 48 h, read-out: MIC CG 48 h): 7.81 µM (≈ 3.14 µg/mL) | MIC (Trichosporon asahii 1188; 24 h, read-out: MIC TA 24 h): 7.81 µM (≈ 3.14 µg/mL) | MIC (Trichosporon asahii 1188; 48 h, read-out: MIC TA 48 h): 7.81 µM (≈ 3.14 µg/mL) | MIC ([9]; 24 h, read-out: MIC AF 24 h): 125 µM (≈ 50.2 µg/mL) | MIC ([9]; 48 h, read-out: MIC AF 48 h): 125 µM (≈ 50.2 µg/mL) | MIC ([10]; 24 h, read-out: MIC LC 24 h): 250 µM (≈ 100 µg/mL) | MIC ([10]; 48 h, read-out: MIC LC 48 h): 250 µM (≈ 100 µg/mL) | MIC ([11]; 72 h, read-out: MIC TI 72 h): 7.81 µM (≈ 3.14 µg/mL) | MIC ([11]; 120 h, read-out: MIC TI 120 h): 7.81 µM (≈ 3.14 µg/mL) | IC50 (HepG2 cells): 53.4 µM | MIC KP-E 24 h [12]: 125 µM (≈ 50.2 µg/mL) | MIC KP-E 48 h [12]: 125 µM (≈ 50.2 µg/mL)
